Data on four compounds can be found in patent US20250163072A1, “MACROCYCLIC COMPOUNDS FOR THE TREATMENT OF CANCER” (Hoffmann-La Roche Inc., priority 2021, published 2025).

Holding throughout (assay type): cell-based, human
One test has as its system NCI-H358 cells. As to the kind of experiment: Cell viability assay, NCI-H358. The following applies: Homo sapiens, NCI-H358, 72 hours, Cell Counting Kit-8, read-out: G12C IC50. The protocol:
(§1) The purpose of this cellular assay was to determine the effects of test compounds on the proliferation of human cancer cell lines NCI-H358 (ATCC-CRL5807) cells, AGS (ATCC-CRL-1739) cells, SW620 (ATCC-CCL-227) over a 3-day treatment period by quantifying the amount of NADPH present at endpoint using Cell Counting Kit-8. Cells were seeded at 5,000 cells/well (NCI-H358), 2,000 cells/well (AGS) 2,000 cells/well (SW620) in 96-well assay plates (Corning-3699) and incubated overnight. On the day of the assay, diluted compounds were then added in a final concentration of 0.5% DMSO. After 72 hours incubation, a tenth of the volume of cell counting kit 8(Dnjindo-CK04) was added into each well. Read the signal (OD450 minus OD650) using EnVision after 2 hours incubation. IC50 was determined by fitting a 4-parameter sigmoidal concentration response model.

Test [1] relates to KRAS G12C in NCI-H358 cells. As to the kind of experiment: pERK inhibition assay, NCI-H358. As to conditions: Homo sapiens, 4 hours incubation. The protocol:
(§2) This assay is to measure the ability of test compounds in inhibiting the phosphorylation of ERK, the downstream signaling of KRAS G12C in NCI-H358 cells, KRAS G12D in AGS cells, and KRAS G12V in SW620. NCI-H358 (ATCC-CRL5807) cells, AGS (ATCC-CRL-1739) cells, SW620 (ATCC-CCL-227) cells were all grown and maintained using RPMI-1640 medium (Thermo Fisher Scientific) with 10% fetal bovine serum and 1% penicillin/streptomycin. On the day prior to compound addition, cells were plated in tissue culture-treated 96 well plates (Corning-3699) at a density of 30,000 cell/well, 20,000 cell/well, 30,000 cell/well for NCI-H358, AGS and SW620 respectively, and allowed for attachment overnight. Diluted compounds were then added in a final concentration of 0.5% DMSO. After 4 hours of incubation, the medium was removed, 100 μL of 4% formaldehyde was added, and the assay plates were incubated at room temperature for 20 minutes. The plates were then washed once with phosphate buffered saline (PBS), and permeabilized with 100 μL of chilled methanol for 10 minutes. Non-specific antibody binding to the plates was blocked using 50 μL 1×BSA blocking buffer (Thermo-37520, 10-fold dilution by Phosphate-Buffered Saline Tween (PBST) for at least 1 hour at room temperature. The amount of phosphor-ERK was determined using an antibody specific for phosphorylated form of ERK. Primary antibody (pERK, CST-4370, Cell Signaling Technology) was diluted 1:300 in blocking buffer, with 50 μL aliquoted to each well, and incubated overnight at 4° C. Cells were washed five times for 5 minutes with PBST. Secondary antibody (HRP-linked anti-rabbit IgG, CST-7074, Cell Signaling Technology) was diluted 1:1000 in blocking buffer, and 50 μL was added to each well and incubated 1-2 hours at room temperature. Cells were washed 5 times for 5 minutes with PBST, 100 μL TMB ELISA substrate (abcam-ab171523) were added and gently shake for 20 minutes. 50 μL stop solution (abcam-ab171529) were added, and then read the signal (OD450) by EnVision. IC50 was determined by fitting a 4-parameter sigmoidal concentration response model.

For the next test, the system named is KRAS G12D in AGS cells. Nature of the test: pERK inhibition assay, AGS. The following applies: Homo sapiens, 4 hours incubation. The protocol:
as §2

For another test, the system named is KRAS G12V in SW620. As to the kind of experiment: pERK inhibition assay, SW620. The following applies: Homo sapiens, SW-620, SW620 cells, 4 hours incubation. The protocol: as §2
The next test relates to SW620 cells. Nature of the test: Cell viability assay, SW620. As to conditions: Homo sapiens, SW-620, SW620, 72 hours, Cell Counting Kit-8, read-out: G12V IC50. The protocol: as §1

Broadly, the IC50 is the midpoint of a concentration-inhibition curve. With `C#CCN1CC[C@H](C(=O)N(C)[C@H](C(=O)N[C@H]2Cc3cc(O)cc(c3)-c3ccc4c(c3)c(c(-c3cccnc3[C@H](C)OC)n4CC)CC(C)(C)COC(=O)[C@@H]3CCCN(N3)C2=O)C(C)C)C1` (atropisomer, axis not shown; (M)) [Example 6, (3S)-N-[(1S)-1-[[(8S,14S)-22-ethyl-4-hydroxy-(21M)-21-[2-[(1S)-1-methoxyethyl]-3-pyridyl]-18,18-dimethyl-9,15-dioxo-16-oxa-10,22,28-triazapentacyclo[18.5.2.12,6.110,14.023,27]nonacosa-1(26),2,4,6(29),20,23(27),24-heptaen-8-yl]carbamoyl]-2-methyl-propyl]-N-methyl-1-prop-2-ynyl-pyrrolidine-3-carboxamide], the IC50 with NCI-H358 cells stood at 797 nM.
In the case of `CCn1c(-c2cccnc2[C@H](C)OC)c2c3cc(ccc31)-c1cc(O)cc(c1)C[C@H](NC(=O)[C@H](C(C)C)N(C)C(=O)[C@H]1CCN(CC#N)C1)C(=O)N1CCC[C@H](N1)C(=O)OCC(C)(C)C2` (atropisomer, axis not shown; (M)) [Example 7, (3S)-1-(cyanomethyl)-N-[(1S)-1-[[(8S,14S)-22-ethyl-4-hydroxy-(21M)-21-[2-[(1S)-1-methoxyethyl]-3-pyridyl]-18,18-dimethyl-9,15-dioxo-16-oxa-10,22,28-triazapentacyclo[18.5.2.12,6.110,14.023,27]nonacosa-1(26),2,4,6(29),20,23(27),24-heptaen-8-yl]carbamoyl]-2-methyl-propyl]-N-methyl-pyrrolidine-3-carboxamide], the figures for the IC50 (in test [1]; in the test on KRAS G12D in AGS cells) were 513 nM and 236 nM, respectively.
In test [1], `CCn1c(-c2cccnc2[C@H](C)OC)c2c3cc(ccc31)-c1cc(O)cc(c1)C[C@H](NC(=O)[C@H](C(C)C)N(C)C(=O)C1CC(C(=O)C=S(C)(C)=O)C1)C(=O)N1CCC[C@H](N1)C(=O)OCC(C)(C)C2` (stereo partly drawn) [Example 8, 3-[2-[dimethyl(oxo)-λ^6-sulfanylidene]acetyl]-N-[(1S)-1-[[(8S,14S)-22-ethyl-4-hydroxy-(21M)-21-[2-[(1S)-1-methoxyethyl]-3-pyridyl]-18,18-dimethyl-9,15-dioxo-16-oxa-10,22,28-triazapentacyclo[18.5.2.12,6.110,14.023,27]nonacosa-1(26),2,4,6(29),20,23(27),24-heptaen-8-yl]carbamoyl]-2-methyl-propyl]-N-methyl-cyclobutanecarboxamide] gave an IC50 of 436 nM.
Take `CCn1c(-c2cccnc2[C@H](C)OC)c2c3cc(ccc31)-c1cc(O)cc(c1)C[C@H](NC(=O)[C@H](C(C)C)N(C)C(=O)C1CC(C#Cc3ccccn3)C1)C(=O)N1CCC[C@H](N1)C(=O)OCC(C)(C)C2` (stereo partly drawn) [Example 13, N-[(1S)-1-[[(8S,14S)-22-ethyl-4-hydroxy-(21M)-21-[2-[(1S)-1-methoxyethyl]-3-pyridyl]-18,18-dimethyl-9,15-dioxo-16-oxa-10,22,28-triazapentacyclo[18.5.2.12,6.110,14.023,27]nonacosa-1(26),2,4,6(29),20,23(27),24-heptaen-8-yl]carbamoyl]-2-methyl-propyl]-N-methyl-3-[2-(2-pyridyl)ethynyl]cyclobutanecarboxamide]: the IC50 in test [1] was determined as 189 nM; with KRAS G12V in SW620, 274 nM; with NCI-H358 cells it was 66 nM; in the test with SW620 cells it was 328 nM.
